The text below walks through data of patent publication US11623002B2, “ALK polypeptides and methods of use thereof” (Elicio Therapeutics, Inc., priority 2016, dated 2023).

Entries after “also recorded” stand apart in the source; their conditions may differ.

In assay [1] the test system is CD4 T-cell. As to the kind of experiment: Intracellular cytokine staining (ICS), CD4 T-cell response to individual ALK polypeptides. In kind it is cell-based. The note with it: spleen and lymph node cells of mice immunized with SEQ ID NOs: 1-59 mixed with Freund's adjuvant; re-stimulated with individual ALK polypeptides; FIGS. 2A and 2B. From the text:
(§1) To identify the immunodominant ALK polypeptides, mice were immunized with ALK polypeptides having the sequences of SEQ ID NOs: 1-59 listed in Table 1A mixed with Freund's adjuvant. Spleens and lymph nodes were then removed from immunized mice and assayed by intracellular cytokine staining (ICS).

Assay [2] has as its system CD8 T-cell. The experiment in a line: Intracellular cytokine staining (ICS), CD8 T-cell response to individual ALK polypeptides. In kind it is cell-based. The note with it: spleen and lymph node cells of mice immunized with SEQ ID NOs: 1-59 mixed with Freund's adjuvant; re-stimulated with individual ALK polypeptides; FIGS. 2C and 2D.
Excerpt: as §1

In the case of KNCPGPVYRIMTQCW [SEQ ID NO: 52], in assay [1], the “CD4 T-cell responses (ICS)” value is given as “strongest CD4 T-cell responses”.

As to GDLKSFLRETRPRPS [SEQ ID NO: 22], the “CD4 T-cell responses (ICS)” value in assay [1] is listed as “strongest CD4 T-cell responses”.

Consider LDFLMEALIISKFNH [SEQ ID NO: 14], for which the “CD8 T-cell response (ICS)” value in assay [2] is “strongest CD8 T-cell response”. The “CD4 T-cell responses (ICS)” value in assay [1] was “strongest CD4 T-cell responses”.

Turning to PSPLQVAVRTLPEVC [SEQ ID NO: 10], the “CD8 T-cell response (ICS)” value in assay [2] is reported as “strongest CD8 T-cell response”. Further, the “CD4 T-cell responses (ICS)” value in assay [1] is recorded as “strongest CD4 T-cell responses”.

For QNIVRCIGVSLQSLP [SEQ ID NO: 17], the “CD4 T-cell responses (ICS)” value in assay [1] is on record as “strongest CD4 T-cell responses”.

LTCPGPGRVAKIGDF [SEQ ID NO: 33]: the “CD8 T-cell response (ICS)” value in assay [2] was “strongest CD8 T-cell response; also recorded: CD8 T-cell (CD8) stimulating sequence”.

For the sequence PVYRIMTQCWQHQPE [SEQ ID NO: 53], in assay [1], the “CD4 T-cell responses (ICS)” value is on record as “strongest CD4 T-cell responses”.
